Experimental data reported in ChEMBL document CHEMBL2074088, “Trans-stimulation effects of folic acid derivatives on methotrexate transport by rat renal organic anion transporter, OAT-K1” (J Pharmacol Exp Ther, 2000).

What follows are compounds tested against T1, Solute carrier organic anion transporter family member 1A3 (Rattus norvegicus, UniProt P70502) (assay: TP_TRANSPORTER: inhibition of MTX uptake in OAT-K1-expressing MDCK cells).
T1 sequence (P70502 whole entry): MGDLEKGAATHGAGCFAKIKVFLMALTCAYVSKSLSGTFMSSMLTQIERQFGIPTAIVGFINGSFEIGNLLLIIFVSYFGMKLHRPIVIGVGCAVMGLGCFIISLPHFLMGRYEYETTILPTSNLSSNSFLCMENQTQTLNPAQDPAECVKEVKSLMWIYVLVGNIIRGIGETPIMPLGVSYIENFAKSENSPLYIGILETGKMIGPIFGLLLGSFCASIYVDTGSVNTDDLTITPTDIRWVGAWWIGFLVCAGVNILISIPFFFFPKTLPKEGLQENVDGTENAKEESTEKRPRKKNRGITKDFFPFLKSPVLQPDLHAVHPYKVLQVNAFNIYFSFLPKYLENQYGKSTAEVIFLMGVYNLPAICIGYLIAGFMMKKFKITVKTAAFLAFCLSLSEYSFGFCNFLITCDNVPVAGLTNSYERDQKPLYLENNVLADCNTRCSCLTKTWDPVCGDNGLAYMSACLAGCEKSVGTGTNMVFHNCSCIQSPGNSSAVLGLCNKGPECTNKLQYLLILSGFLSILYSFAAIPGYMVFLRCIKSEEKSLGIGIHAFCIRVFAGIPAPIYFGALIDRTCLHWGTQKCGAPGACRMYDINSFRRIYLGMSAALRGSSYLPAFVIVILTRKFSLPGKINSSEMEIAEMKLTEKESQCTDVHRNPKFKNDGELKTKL
Format: functional, cell-based

Row | Structure (SMILES) | Ki [µM]
1 | Nc1nc(N)c2nc(CNc3ccc(C(=O)N[C@@H](CCC(=O)O)C(=O)O)cc3)cnc2n1 [AMINOPTERIN] | 0.5
2 | Nc1nc2c(c(=O)[nH]1)N(C=O)C(CNc1ccc(C(=O)N[C@@H](CCC(=O)O)C(=O)O)cc1)CN2 (stereo not given in full) [LEUCOVORIN] | 8.2
3 | O=C1OC(c2ccc(O)c(S(=O)(=O)O)c2)(c2ccc(O)c(S(=O)(=O)O)c2)c2c(Br)c(Br)c(Br)c(Br)c21 [SULFOBROMOPHTHALEIN SODIUM] | 21

Next, values leading:

Row | Ki [µM] | Structure (SMILES)
4 | 14.1 | Nc1nc2ncc(CNc3ccc(C(=O)N[C@@H](CCC(=O)O)C(=O)O)cc3)nc2c(=O)[nH]1 [FOLIC ACID]
5 | 1.2 | CN1c2c(nc(N)[nH]c2=O)NC[C@@H]1CNc1ccc(C(=O)N[C@@H](CCC(=O)O)C(=O)O)cc1 [LEVOMEFOLIC ACID]
